In patent US20250084044A1, “PROTOPORPHYRINOGEN OXIDASE INHIBITORS” (Enko Chem, Inc., priority 2022, published 2025):

How the values were obtained:
Assay type in all cases: in vivo
[1] = test system: Echinochloa crus-galli (ECHCG); experiment: Post-emergence herbicidal activity, ECHCG; settings: 7 days after treatment; for pest or weed control at 100 ppm: Echinochloa crus-galli, 168 h, Table 3a; for Post-emergence (100 ppm) ECHCG: Table 3b
Description: (§1) Selected compounds of the invention were screened at 100 PPM against Amaranthus retroflexus (AMARE), Setaria italica (SETIT), and Echinochloa crus-galli (ECHCG). […]
(§2) Compounds were formulated in 25% Acetone, 1% Crop oil concentrate (COC-Agridex), 0.1% Tween-20, and 2.5% Ammonium sulphate (AMS). Three replicate pots were treated with each compound. Treatment consisting of the above formulation excluding active compound was applied as a treatment control (TC). Plants were treated with the test compound solution in a laboratory spray chamber fitted with 8003 flat fan nozzles calibrated to deliver 187-200 L ha^−1 at 269 kPa. Plants were placed back in the growth chamber and evaluated for % visual injury compared to TC 7 days after treatment (DAT). The data presented in Table 3 indicate a percentage control, where 100% control indicates complete inhibition of growth. […]

[2] = test system: Amaranthus retroflexus (AMARE); experiment: Post-emergence herbicidal activity, AMARE; settings: 7 days after treatment; for pest or weed control at 100 ppm: Amaranthus retroflexus, 168 h, Table 3a; for Post-emergence (100 ppm) AMARE: Table 3b
Description: as §1, §2

[3] = test system: Setaria italica (SETIT); experiment: Post-emergence herbicidal activity, SETIT; settings: 7 days after treatment; for pest or weed control at 100 ppm: Setaria italica, 168 h, Table 3a; for Post-emergence (100 ppm) SETIT: Table 3b
Description: Selected compounds of the invention were screened at 100 PPM against Amaranthus retroflexus (AMARE), Setaria italica (SETIT), and Echinochloa crus-galli (ECHCG).
(§3) Accordingly, PPO susceptible weed seeds were sown in 5″×5″ pots by quadrant containing Miracle-Gro potting mix (Scotts Miracle-Gro Company, Marysville, OH. USA) and grown in a Conviron growth chamber with appropriate growth conditions (temperature of 26/22° C. with photoperiod 16/8 h light day/night and light intensity of 300 μmol m^−2 s^−1 supplemented by LED lamps). Relative humidity in the growth chamber was maintained at around 65%. Plants were grown until 2-4 leaf stage and thinned to 5-8 plants per quadrant per species.
(§4) Compounds were formulated in 25% Acetone, 1% Crop oil concentrate (COC-Agridex), 0.1% Tween-20, and 2.5% Ammonium sulphate (AMS). Three replicate pots were treated with each compound. Treatment consisting of the above formulation excluding active compound was applied as a treatment control (TC). Plants were treated with the test compound solution in a laboratory spray chamber fitted with 8003 flat fan nozzles calibrated to deliver 187-200 L ha^−1 at 269 kPa. Plants were placed back in the growth chamber and evaluated for % visual injury compared to TC 7 days after treatment (DAT). The data presented in Table 3 indicate a percentage control, where 100% control indicates complete inhibition of growth.
(§5) Selected compounds of the invention were screened at 100 PPM against Amaranthus retroflexus (AMARE), Echinochloa crus-galli (ECHCG), Kochia scoparia (KCHSC), and Setaria italica (SETIT).
as §3, with “5″ 5″” for “5″×5″”, “OH,” for “OH.”, “[…]” for “m^−2”

[4] = test system: Kochia scoparia (KCHSC); experiment: Post-emergence herbicidal activity, KCHSC; settings: 7 days after treatment, Table 3b
Description: as §5
as §3, with “5″ 5″” for “5″×5″”, “OH,” for “OH.”, “[…]” for “m^−2”
as §4

[5] = test system: Kochia scoparia (KCHSC); experiment: Pre-emergence herbicidal activity, KCHSC; settings: 7 days after treatment
From the text: (§6) Selected compounds of the invention were screened at 200 PPM against Amaranthus retroflexus (AMARE). Echinochloa crus-galli (ECHCG). Kochia scoparia (KCHSC), and Selaria italica (SETIT).
(§7) Accordingly, PPO susceptible weed seeds were planted in 5″×5″ pots by quadrant containing custom field soil mix (Sandy loam with 4.7% OM, pH 7.0) and covered with a fine layer of the same soil. Compounds were formulated in 25% Acetone, 1% Crop oil concentrate (COC-Agridex), 0.1% Tween-20, and 2.5% Ammonium sulphate (AMS). Three replicate pots were treated with each compound. Treatment consisting of the above formulation excluding active compound was applied as a treatment control (TC). Pots were treated with the test compound solution in a laboratory spray chamber fitted with 8003 flat fan nozzles calibrated to deliver 187-200 L ha^−1 at 269 kPa. Compound was incorporated into the soil by simulating rainfall equivalent to 0.2 mm using the same track sprayer. Subsequently, pots were irrigated from the bottom until assessed for % growth and germination inhibition. Pots were placed back in the growth chamber and evaluated for % growth and germination inhibition compared to TC 7 days after treatment (DAT). Growth conditions are similar to the ones mentioned in POST emergence assay.
(§8) The data presented in Table 4 indicate a percentage control, where 100% control indicates complete inhibition of growth.

[6] = test system: Amaranthus retroflexus (AMARE); experiment: Pre-emergence herbicidal activity, AMARE; settings: 7 days after treatment
From the text: as §6, §7, §8

[7] = test system: Echinochloa crus-galli (ECHCG); experiment: Pre-emergence herbicidal activity, ECHCG; settings: 7 days after treatment
From the text: as §6, §7, §8

[8] = test system: Setaria italica (SETIT); experiment: Pre-emergence herbicidal activity, SETIT; settings: 7 days after treatment
From the text: as §6, §7, §8

| SMILES | pest or weed control at 100 ppm [1] | pest or weed control at 100 ppm [2] | pest or weed control at 100 ppm [3] | Post-emergence (100 ppm) KCHSC [4] | Pre-emergence (200 ppm) KCHSC [5] | Pre-emergence (200 ppm) AMARE [6] | Post-emergence (100 ppm) ECHCG [1] | Pre-emergence (200 ppm) ECHCG [7] | Post-emergence (100 ppm) AMARE [2] | Pre-emergence (200 ppm) SETIT [8] | Post-emergence (100 ppm) SETIT [3] |
| --- | --- | --- | --- | --- | --- | --- | --- | --- | --- | --- | --- |
| COC(=O)[C@@H](C)N1C(=O)C(F)(F)Oc2cc(F)c(-c3c(F)c(F)c(F)c(F)c3F)cc21 [Compound 8, methyl (R)-2-(2,2,7-trifluoro-3-oxo-6-(perfluorophenyl)-2,3-dihydro-4H-benzo[b][1,4]oxazin-4-yl)propanoate] | 45% | 80% | 75% |  |  |  |  |  |  |  |  |
| C[C@@H](C(=O)O)N1C(=O)C(F)(F)Oc2cc(F)c(-c3c(F)c(F)c(F)c(F)c3F)cc21 [Compound 11, (S)-2-(2,2,7-trifluoro-3-oxo-6-(perfluorophenyl)-2,3-dihydro-4H-benzo[b][1,4]oxazin-4-yl)propanoic acid] | 83% | 95% | 96% |  |  |  |  |  |  |  |  |
| COC(=O)[C@@H]1CCCN1C(=O)CN1C(=O)C(F)(F)Oc2cc(F)c(-c3c(F)c(F)c(F)c(F)c3F)cc21 [Compound 74, methyl (2-(2,2,7-trifluoro-3-oxo-6-(perfluorophenyl)-2,3-dihydro-4H-benzo[b][1,4]oxazin-4-yl)acetyl)-L-prolinate] | 33% | 100% | 100% |  |  |  |  |  |  |  |  |
| COC(=O)[C@@H](C)N1C(=O)C(F)(F)Oc2cc(F)c(-c3c(F)cc(F)c(F)c3F)cc21 [Compound 77, methyl (2R)-2-(2,2,7-trifluoro-3-oxo-6-(2,3,4,6-tetrafluorophenyl)-2,3-dihydro-4H-benzo[b][1,4]oxazin-4-yl)propanoate] | 88% | 100% | 98% | 100% | 0% | 100% | 88% | 3% | 100% | 70% | 98% |
| C[C@@H](C(=O)O)N1C(=O)C(F)(F)Oc2cc(F)c(-c3c(F)cc(F)c(F)c3F)cc21 [Compound 78, (2S)-2-(2,2,7-trifluoro-3-oxo-6-(2,3,4,6-tetrafluorophenyl)-2,3-dihydro-4H-benzo[b][1,4]oxazin-4-yl)propanoic acid] | 70% | 100% | 100% | 93% | 60% | 100% | 70% | 5% | 100% | 18% | 100% |
| COC(=O)CCN(C)C(=O)CN1C(=O)C(F)(F)Oc2cc(F)c(-c3c(F)c(F)c(F)c(F)c3F)cc21 [Compound 80, methyl 3-(N-methyl-2-(2,2,7-trifluoro-3-oxo-6-(perfluorophenyl)-2,3-dihydro-4H-benzo[b][1,4]oxazin-4-yl)acetamido)propanoate] | 75% | 100% | 93% | 20% | 0% | 98% | 75% | 0% | 100% | 3% | 93% |
| CN(CC(=O)O)C(=O)CN1C(=O)C(F)(F)Oc2cc(F)c(-c3c(F)c(F)c(F)c(F)c3F)cc21 [Compound 85, N-methyl-N-(2-(2,2,7-trifluoro-3-oxo-6-(perfluorophenyl)-2,3-dihydro-4H-benzo[b][1,4]oxazin-4-yl)acetyl)glycine] | 25% | 100% | 88% |  |  |  |  |  |  |  |  |
| COC(=O)C1CN(C(=O)CN2C(=O)C(F)(F)Oc3cc(F)c(-c4c(F)c(F)c(F)c(F)c4F)cc32)C1 [Compound 86, methyl 1-(2-(2,2,7-trifluoro-3-oxo-6-(perfluorophenyl)-2,3-dihydro-4H-benzo[b][1,4]oxazin-4-yl)acetyl)azetidine-3-carboxylate] |  |  |  | 11% | 27% | 68% | 69% | 5% | 100% | 7% | 100% |
| COC(=O)CCNC(=O)[C@H](C)N1C(=O)C(F)(F)Oc2cc(F)c(-c3c(F)c(F)c(F)c(F)c3F)cc21 [Compound 130, methyl (S)-3-(2-(2,2,7-trifluoro-3-oxo-6-(perfluorophenyl)-2,3-dihydro-4H-benzo[b][1,4]oxazin-4-yl)propanamido)propanoate] | 92% | 100% | 100% |  |  |  |  |  |  |  |  |
| COC(=O)CCNC(=O)[C@@H](C)N1C(=O)C(F)(F)Oc2cc(F)c(-c3c(F)c(F)c(F)c(F)c3F)cc21 [Compound 131, methyl (R)-3-(2-(2,2,7-trifluoro-3-oxo-6-(perfluorophenyl)-2,3-dihydro-4H-benzo[b][1,4]oxazin-4-yl)propanamido)propanoate] | 15% | 100% | 83% |  |  |  |  |  |  |  |  |
| COC(=O)CCN(C)C(=O)[C@H](C)N1C(=O)C(F)(F)Oc2cc(F)c(-c3c(F)c(F)c(F)c(F)c3F)cc21 [Compound 132, methyl (S)-3-(N-methyl-2-(2,2,7-trifluoro-3-oxo-6-(perfluorophenyl)-2,3-dihydro-4H-benzo[b][1,4]oxazin-4-yl)propanamido)propanoate] | 70% | 100% | 100% |  |  |  |  |  |  |  |  |
| COC(=O)[C@H](OC)N1C(=O)C(F)(F)Oc2cc(F)c(-c3c(F)c(F)c(F)c(F)c3F)cc21 [Compound 185, methyl (S)-2-methoxy-2-(2,2,7-trifluoro-3-oxo-6-(perfluorophenyl)-2,3-dihydro-4H-benzo[b][1,4]oxazin-4-yl)acetate] |  |  |  | 100% | 83% | 100% | 50% | 43% | 100% | 100% | 100% |
